Values quoted from earlier work as cited in US20170002035A1, “NOVEL CRYSTALLINE FORMS OF AN ANTIVIRAL BENZIMIDAZOLE COMPOUND” (GlaxoSmithKline LLC, priority 1998, published 2017).

Conditions: amorphous material as disclosed in WO96/01833

hygroscopicity: hygroscopic
SMILES: CC(C)Nc1nc2cc(Cl)c(Cl)cc2n1[C@H]1O[C@@H](CO)[C@H](O)[C@@H]1O [Form 1263W94, 5,6-dichloro-2-(isopropylamino)-1-(β-L-ribofuranosyl)-1H-benzimidazole]
